Experimental data reported in PMC10743905, “Design, Synthesis, and In Vitro and In Vivo Bioactivity Studies of Hydrazide–Hydrazones of 2,4-Dihydroxybenzoic Acid” (International Journal of Molecular Sciences, 2023).
≈ marks a conversion by molar mass, not a printed value.

Test system: reference Gram-positive bacteria
Experiment: Broth microdilution, summary over the Gram-positive panel
Format: cell-based
Settings: read-out: MIC
Text: (§1) In vitro antimicrobial activity assays - Methodology
(§2) The examined compounds 1 - 24 were screened in vitro for antibacterial and antifungal activities using the broth microdilution method according to procedure reported earlier by our research group and European Committee on Antimicrobial Susceptibility Testing (EUCAST) and Clinical and Laboratory Standards Institute (CLSI) guidelines against a panel of reference and clinical or saprophytic strains of microorganisms, in-cluding Gram-positive bacteria, Staphylococcus aureus ATCC 43300 (Methicillin Resistant S. aureus – MRSA), Staphylococcus aureus ATCC 29213 (Methicillin Susceptible S. aureus – MSSA), Staphylococcus epidermidis ATCC 12228, Enterococcus faecalis ATCC 29212, Micro-coccus luteus ATCC 10240, Bacillus subtilis ATCC 6633 and Bacillus cereus ATCC 10876), Gram-negative bacteria (Bordetella bronchiseptica ATCC 4617, Escherichia coli ATCC 25922, Klebsiella pneumoniae ATCC 13883, Proteus mirabilis ATCC 12453, Salmonella typhimurium ATCC 14028 and Pseudomonas aeruginosa ATCC 9027) and fungi belonging to yeasts (Can-dida albicans ATCC 10231, Candida albicans ATCC 2091, Candida parapsilosis ATCC 22019, Candida glabrata ATCC 90030 and Candida krusei ATCC 14243). The microorganisms be-longing to ATCC came from American Type Culture Collection, routinely used for the evaluation of antimicrobials. […]
(§3) Samples containing examined compounds were dissolved in dimethyl sulfoxide (DMSO). […]
(§4) Subsequently, the MIC (Minimal Inhibitory Concentration) of the compounds was ex-amined by the microdilution broth method, using their two-fold dilutions in Mueller- […]
(§5) Hinton broth or (for bacteria) and RPMI 1640 broth with MOPS (for fungi) prepared in 96-well polystyrene plates. Final concentrations of the compounds ranged from 1000 to 0.488 µg/ml. Microbial suspensions were prepared in 0.85% NaCl with an optical density of 0.5 McFarland standard. Next each bacterial or fungal suspension was added per each well containing broth and various concentrations of the examined compounds. After incuba-

Compound	MIC [µg/mL]
COc1ccc(/C=N/NC(=O)c2ccc(O)cc2O)cc1Br [Compound 10, N-[(3-bromo-4-methoxyphenyl)methylidene]-2,4-dihydroxybenzohydrazide]	15.6 to 1000 (≈ 42.8 to 2740 µM)

Test system: Candida krusei ATCC 14243
Experiment: Broth microdilution MIC/MFC
Format: cell-based
Settings: Pichia kudriavzevii, ATCC14243, read-out: MIC
Text: as §1
as §2, with “antimicrobials. All the used microbial cultures were first subcultured on nu-trient agar or Sabouraud agar at 35°C for 18-24 h or 30°C for 24-48 h for bacteria and fungi,” for “antimicrobials.”
(§6) The surface of Mueller-Hinton agar (for bacteria) and RPMI 1640 with MOPS (for fungi) were inoculated with the suspensions of bacterial or fungal species. Microbial suspensions were prepared in sterile saline with an optical density of McFarland standard scale 0.5.
(§7) Samples containing examined compounds were dissolved in dimethyl sulfoxide (DMSO).
(§8) Furthermore, bacterial and fungal suspensions were put onto Petri dishes with solid me-dia containing 2 mg/mL of the tested compounds followed incubation at 37°C for 24h and 30°C for 48h for bacteria and fungi, respectively. The inhibition of microbial growth was judged by comparison with a control culture prepared without any sample tested. Ciprof-loxacin, vancomycin, nitrofurantoin, cefuroxime, ampicillin or nystatin (Sigma) were used as a reference antibacterial or antifungal compounds, respectively.
as §4, §5

Compound	MIC [µg/mL]
COc1ccc(/C=N/NC(=O)c2ccc(O)cc2O)cc1Br [Compound 10, N-[(3-bromo-4-methoxyphenyl)methylidene]-2,4-dihydroxybenzohydrazide]	> 1000

Test system: Candida albicans ATCC 2091
Experiment: Broth microdilution MIC/MFC
Format: cell-based
Settings: ATCC2091, read-out: MIC
Text: as §1
as §2, with “antimicrobials. All the used microbial cultures were first subcultured on nu-trient agar or Sabouraud agar at 35°C for 18-24 h or 30°C for 24-48 h for bacteria and fungi,” for “antimicrobials.”
as §6, §7, §8, §4, §5

Compound	MIC [µg/mL]
COc1ccc(/C=N/NC(=O)c2ccc(O)cc2O)cc1Br [Compound 10, N-[(3-bromo-4-methoxyphenyl)methylidene]-2,4-dihydroxybenzohydrazide]	> 1000

Test system: Candida parapsilosis ATCC 22019
Experiment: Broth microdilution MIC/MFC
Format: cell-based
Settings: Lodderomyces parapsilosis, ATCC22019, read-out: MIC
Text: as §1
as §2, with “antimicrobials. All the used microbial cultures were first subcultured on nu-trient agar or Sabouraud agar at 35°C for 18-24 h or 30°C for 24-48 h for bacteria and fungi,” for “antimicrobials.”
as §6, §7, §8, §4, §5

Compound	MIC [µg/mL]
COc1ccc(/C=N/NC(=O)c2ccc(O)cc2O)cc1Br [Compound 10, N-[(3-bromo-4-methoxyphenyl)methylidene]-2,4-dihydroxybenzohydrazide]	> 1000

Test system: Candida albicans ATCC 10231
Experiment: Broth microdilution MIC/MFC
Format: cell-based
Settings: ATCC10231, read-out: MIC
Text: as §1
as §2, with “antimicrobials. All the used microbial cultures were first subcultured on nu-trient agar or Sabouraud agar at 35°C for 18-24 h or 30°C for 24-48 h for bacteria and fungi,” for “antimicrobials.”
as §6, §7, §8, §4, §5

Compound	MIC [µg/mL]
COc1ccc(/C=N/NC(=O)c2ccc(O)cc2O)cc1Br [Compound 10, N-[(3-bromo-4-methoxyphenyl)methylidene]-2,4-dihydroxybenzohydrazide]	> 1000

Test system: Candida glabrata ATCC 90030
Experiment: Broth microdilution MIC/MFC
Format: cell-based
Settings: Nakaseomyces glabratus, ATCC90030, read-out: MIC
Text: as §1
as §2, with “antimicrobials. All the used microbial cultures were first subcultured on nu-trient agar or Sabouraud agar at 35°C for 18-24 h or 30°C for 24-48 h for bacteria and fungi,” for “antimicrobials.”
as §6, §7, §8, §4, §5

Compound	MIC [µg/mL]
COc1ccc(/C=N/NC(=O)c2ccc(O)cc2O)cc1Br [Compound 10, N-[(3-bromo-4-methoxyphenyl)methylidene]-2,4-dihydroxybenzohydrazide]	> 1000

Test system: not given
Experiment: not given
Settings: not given

Compound	melting point [°C]
COc1ccc(/C=N/NC(=O)c2ccc(O)cc2O)cc1Br [Compound 10, N-[(3-bromo-4-methoxyphenyl)methylidene]-2,4-dihydroxybenzohydrazide]	260

Test system: Bordetella bronchiseptica ATCC 4617
Experiment: Broth microdilution MIC/MBC
Format: cell-based
Settings: ATCC4617
Text: as §1
as §2, with “antimicrobials. All the used microbial cultures were first subcultured on nu-trient agar or Sabouraud agar at 35°C for 18-24 h or 30°C for 24-48 h for bacteria and fungi,” for “antimicrobials.”
as §6, §7, §8, §4, §5

Compound	MIC [µg/mL]
COc1ccc(/C=N/NC(=O)c2ccc(O)cc2O)cc1Br [Compound 10, N-[(3-bromo-4-methoxyphenyl)methylidene]-2,4-dihydroxybenzohydrazide]	> 1000

Test system: Escherichia coli ATCC 25922
Experiment: Broth microdilution MIC/MBC
Format: cell-based
Settings: ATCC25922
Text: as §1
as §2, with “antimicrobials. All the used microbial cultures were first subcultured on nu-trient agar or Sabouraud agar at 35°C for 18-24 h or 30°C for 24-48 h for bacteria and fungi,” for “antimicrobials.”
as §6, §7, §8, §4, §5

Compound	MIC [µg/mL]
COc1ccc(/C=N/NC(=O)c2ccc(O)cc2O)cc1Br [Compound 10, N-[(3-bromo-4-methoxyphenyl)methylidene]-2,4-dihydroxybenzohydrazide]	> 1000

Test system: Enterococcus faecalis ATCC 29212
Experiment: Broth microdilution MIC/MBC
Format: cell-based
Settings: not given
Text: as §1
as §2, with “antimicrobials. All the used microbial cultures were first subcultured on nu-trient agar or Sabouraud agar at 35°C for 18-24 h or 30°C for 24-48 h for bacteria and fungi,” for “antimicrobials.”
as §6, §7, §8, §4, §5

Compound	MBC/MIC
COc1ccc(/C=N/NC(=O)c2ccc(O)cc2O)cc1Br [Compound 10, N-[(3-bromo-4-methoxyphenyl)methylidene]-2,4-dihydroxybenzohydrazide]	4

Same assay, conditions: ATCC29212, read-out: MBC

Compound	MBC [µg/mL]
COc1ccc(/C=N/NC(=O)c2ccc(O)cc2O)cc1Br [Compound 10, N-[(3-bromo-4-methoxyphenyl)methylidene]-2,4-dihydroxybenzohydrazide]	1000 (≈ 2740 µM)

Same assay, conditions: ATCC29212, read-out: MIC

Compound	MIC [µg/mL]
COc1ccc(/C=N/NC(=O)c2ccc(O)cc2O)cc1Br [Compound 10, N-[(3-bromo-4-methoxyphenyl)methylidene]-2,4-dihydroxybenzohydrazide]	250 (≈ 685 µM)

Test system: Bacillus cereus ATCC 10876
Experiment: Broth microdilution MIC/MBC
Format: cell-based
Settings: not given
Text: as §1
as §2, with “antimicrobials. All the used microbial cultures were first subcultured on nu-trient agar or Sabouraud agar at 35°C for 18-24 h or 30°C for 24-48 h for bacteria and fungi,” for “antimicrobials.”
as §6, §7, §8, §4, §5

Compound	MBC/MIC
COc1ccc(/C=N/NC(=O)c2ccc(O)cc2O)cc1Br [Compound 10, N-[(3-bromo-4-methoxyphenyl)methylidene]-2,4-dihydroxybenzohydrazide]	2

Same assay, conditions: ATCC10876

Compound	MBC [µg/mL]
COc1ccc(/C=N/NC(=O)c2ccc(O)cc2O)cc1Br [Compound 10, N-[(3-bromo-4-methoxyphenyl)methylidene]-2,4-dihydroxybenzohydrazide]	250 (≈ 685 µM)

Same assay, conditions: ATCC10876, read-out: MIC

Compound	MIC [µg/mL]
COc1ccc(/C=N/NC(=O)c2ccc(O)cc2O)cc1Br [Compound 10, N-[(3-bromo-4-methoxyphenyl)methylidene]-2,4-dihydroxybenzohydrazide]	125 (≈ 342 µM)

Test system: Klebsiella pneumoniae ATCC 13883
Experiment: Broth microdilution MIC/MBC
Format: cell-based
Settings: ATCC13883
Text: as §1
as §2, with “antimicrobials. All the used microbial cultures were first subcultured on nu-trient agar or Sabouraud agar at 35°C for 18-24 h or 30°C for 24-48 h for bacteria and fungi,” for “antimicrobials.”
as §6, §7, §8, §4, §5

Compound	MIC [µg/mL]
COc1ccc(/C=N/NC(=O)c2ccc(O)cc2O)cc1Br [Compound 10, N-[(3-bromo-4-methoxyphenyl)methylidene]-2,4-dihydroxybenzohydrazide]	> 1000

Test system: Staphylococcus aureus ATCC 43300
Experiment: Broth microdilution MIC/MBC
Format: cell-based
Settings: Staphylococcus aureus ATCC 43300 (MRSA)
Text: as §1, §2, §3, §4, §5

Compound	MBC [µg/mL]
COc1ccc(/C=N/NC(=O)c2ccc(O)cc2O)cc1Br [Compound 10, N-[(3-bromo-4-methoxyphenyl)methylidene]-2,4-dihydroxybenzohydrazide]	500 (≈ 1370 µM)
